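Test compounds were applied to cells in 96-well plates for 48 hours at 5 doses. GI50 is the concentration that inhibits growth by half.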 Active and inactive are the calls of the source. No stated cut-off is given here; in the data, active = GI50 up to about 1.1 µM and inactive = higher.
Tests used:
Test in all cases: DTP human tumour cell line panel, 48 h
RPMI-8226 = system: RPMI-8226
SK-MEL-5 = system: SK-MEL-5
HCT-15 = system: HCT-15
SNB-19 = system: SNB-19
TK-10 = system: TK-10
NCI-H226 = system: NCI-H226
MDA-MB-231 = system: MDA-MB-231
UACC-62 = system: UACC-62
OVCAR-5 = system: OVCAR-5
SK-OV-3 = system: SK-OV-3
HT-29 = system: HT-29
IGROV-1 = system: IGROV-1
U-251 = system: U-251
RXF 393 = system: RXF 393
NCI-H522 = system: NCI-H522
UO-31 = system: UO-31
COLO 205 = system: COLO 205
UACC-257 = system: UACC-257
CAKI-1 = system: CAKI-1
HOP-62 = system: HOP-62

Row | Structure (SMILES) | GI50 (RPMI-8226) | GI50 (SK-MEL-5) | GI50 (HCT-15) | GI50 (SNB-19) | GI50 (TK-10) | GI50 (NCI-H226) | GI50 (MDA-MB-231) | GI50 (UACC-62) | GI50 (OVCAR-5) | GI50 (SK-OV-3) | GI50 (HT-29) | GI50 (IGROV-1) | GI50 (U-251) | GI50 (RXF 393) | GI50 (NCI-H522) | GI50 (UO-31) | GI50 (COLO 205) | GI50 (UACC-257) | GI50 (CAKI-1) | GI50 (HOP-62)
1 | N#C/C(=C\Nc1ccccn1)C(=O)C1CC1 | > 100 µM (inactive) | > 100 µM (inactive) | > 100 µM | > 100 µM (inactive) | > 100 µM (inactive) | > 100 µM (inactive) | > 100 µM (inactive) | > 100 µM (inactive) | > 100 µM (inactive) | > 100 µM (inactive) | > 100 µM (inactive) | > 100 µM (inactive) | > 100 µM (inactive) | > 100 µM (inactive) | > 100 µM (inactive) | > 100 µM (inactive) | > 100 µM (inactive) | > 100 µM (inactive) | > 100 µM (inactive) | > 100 µM (inactive)
2 | COC1/C=C\OC2(C)Oc3c(C)c(O)c4c(O)c(c(CN(C)C)c(O)c4c3C2=O)NC(=O)/C(C)=C\C=C/C(C)C(O)C(C)C(O)C(C)C(OC(C)=O)C1C (stereo not given) | 6.5 µM (inactive) | 18.5 µM (inactive) | 44.2 µM | 42.9 µM (inactive) | 35.3 µM (inactive) | > 100 µM (inactive) | 28.8 µM (inactive) | 18.3 µM (inactive) | > 100 µM (inactive) | > 100 µM (inactive) | 20.6 µM (inactive) | 33.7 µM (inactive) | 19.7 µM (inactive) | 37.8 µM (inactive) | 16.2 µM (inactive) | 39 µM (inactive) | 17.5 µM (inactive) | 22.4 µM (inactive) | 57.1 µM (inactive) | 55.1 µM (inactive)
3 | N/N=C1\C(OC(=O)Nc2ccccc2)=Nc2ccccc21 | 10.3 µM (inactive) | 14.2 µM (inactive) | 26.5 µM | 26.8 µM (inactive) | 23 µM (inactive) | 16.8 µM (inactive) | 18.6 µM (inactive) | 14.8 µM (inactive) | 45.1 µM (inactive) | 19.8 µM (inactive) | 30.5 µM (inactive) | 14.8 µM (inactive) | 16 µM (inactive) | 15.4 µM (inactive) | 13.7 µM (inactive) | 12.7 µM (inactive) | 17.3 µM (inactive) | 29.7 µM (inactive) | 14.9 µM (inactive) | 18.6 µM (inactive)
4 | OCCCCn1cc(Cn2ncc3c(SCc4ccccc4)ncnc32)nn1 | 40.9 µM (inactive) | 21.7 µM (inactive) | 28.3 µM | 65.5 µM (inactive) | > 100 µM (inactive) | 93.5 µM (inactive) | 75.7 µM (inactive) | 44.5 µM (inactive) | > 100 µM (inactive) | 89.1 µM (inactive) | 40.5 µM (inactive) | 77.6 µM (inactive) | 39.2 µM (inactive) | 64.9 µM (inactive) | 29.2 µM (inactive) | 31.1 µM (inactive) | 31 µM (inactive) | 49.4 µM (inactive) | 31 µM (inactive) | 44.1 µM (inactive)
5 | C/C(=C/CC[C@](C)(OC1OC(CO)C(O)C(O)C1OC1OC(C)C(O)C(O)C1O)[C@H]1CC[C@]2(C)[C@@H]1CC[C@@H]1[C@@]3(C)CC[C@H](O)C(C)(C)[C@@H]3C[C@H](O)[C@]12C)CO (stereo not given in full) | > 100 µM (inactive) | > 100 µM (inactive) | > 10 µM | > 100 µM (inactive) | > 100 µM (inactive) | > 100 µM (inactive) | > 100 µM (inactive) | > 100 µM (inactive) | > 100 µM (inactive) | > 100 µM (inactive) | > 100 µM (inactive) | > 100 µM (inactive) | > 100 µM (inactive) | > 100 µM (inactive) | > 100 µM (inactive) | > 100 µM (inactive) | > 100 µM (inactive) | > 100 µM (inactive) | > 100 µM (inactive) | > 100 µM (inactive)
6 | CN(C)CCNc1nc(-c2ccc3ccccc3c2)nc2[nH]cnc12 | 22.2 µM (inactive) | 10.7 µM (inactive) | 5.82 µM | 14 µM (inactive) | 6.38 µM (inactive) | 2.59 µM (inactive) | 11.2 µM (inactive) | 10.8 µM (inactive) | 13.1 µM (inactive) | 7.48 µM (inactive) | 3.84 µM (inactive) | 2.31 µM (inactive) | 13.1 µM (inactive) | 11.6 µM (inactive) | 1.12 µM (active) | 3.03 µM (inactive) | 7.55 µM (inactive) | 6.9 µM (inactive) | 4.89 µM (inactive) | 10.9 µM (inactive)
7 | CCOC(=O)C(Cc1ccccc1)(Cc1ccc(O)cn1)NC(=O)c1ccccc1 (stereo not given) | 25.9 µM (inactive) | 16.5 µM (inactive) | 19.7 µM | 32 µM (inactive) | 32.1 µM (inactive) | 29.2 µM (inactive) | 28.1 µM (inactive) | 16.7 µM (inactive) | 27.3 µM (inactive) | 30.6 µM (inactive) | 26.5 µM (inactive) | 22.6 µM (inactive) | 21.7 µM (inactive) | 23.8 µM (inactive) | 15.6 µM (inactive) | 29.6 µM (inactive) | 24.4 µM (inactive) | 23.5 µM (inactive) | 26.2 µM (inactive) | 32.2 µM (inactive)
8 | CC1CC(N2CCOCC2)=Nc2ccccc2N1Cc1ccccc1 (stereo not given) | 48.2 µM (inactive) | 36.3 µM (inactive) | > 100 µM | > 100 µM (inactive) | > 100 µM (inactive) | 51.2 µM (inactive) | > 100 µM (inactive) | 44.6 µM (inactive) | > 100 µM (inactive) | 61.2 µM (inactive) | 38.7 µM (inactive) | 25.6 µM (inactive) | > 100 µM (inactive) | 16.1 µM (inactive) | 46.5 µM (inactive) | > 100 µM (inactive) | 30.9 µM (inactive) | 38.3 µM (inactive) | 25.2 µM (inactive) | 58.1 µM (inactive)
9 | N#CC(C#N)=Cc1c(O)ccc2ccccc12 | 11.9 µM (inactive) | 13.3 µM (inactive) | 14.1 µM | 15.4 µM (inactive) | 18.1 µM (inactive) | 21.3 µM (inactive) | 13.2 µM (inactive) | 12.9 µM (inactive) | 17 µM (inactive) | 15.8 µM (inactive) | 14.5 µM (inactive) | 17.8 µM (inactive) | 15.9 µM (inactive) | 15.2 µM (inactive) | 9.93 µM (inactive) | 14 µM (inactive) | 15.2 µM (inactive) | 16.8 µM (inactive) | 14.1 µM (inactive) | 20.6 µM (inactive)
10 | COc1ccc2c(C(=O)c3c(C)n(CCN4CCOCC4)c4ccccc34)cccc2c1 | 24.7 µM (inactive) | 17.5 µM (inactive) | 21.3 µM | 46.1 µM (inactive) | 58.5 µM (inactive) | > 100 µM (inactive) | 22.6 µM (inactive) | 18.2 µM (inactive) | > 100 µM (inactive) | 39.6 µM (inactive) | 21 µM (inactive) | 36.6 µM (inactive) | 15.3 µM (inactive) | 22.1 µM (inactive) | 18.7 µM (inactive) | 34 µM (inactive) | 12.2 µM (inactive) | 20.3 µM (inactive) | 59 µM (inactive) | 71.9 µM (inactive)
11 | CC(N/N=C(\S)N1CCCCCC1)c1cccnn1 (stereo not given) | 0.155 µM (active) | 0.248 µM (active) | 0.386 µM | 0.381 µM (active) | 0.706 µM (active) | 0.618 µM (active) | 0.553 µM (active) | 0.264 µM (active) | 0.316 µM (active) | 0.409 µM (active) | 0.483 µM (active) | 0.361 µM (active) | 0.326 µM (active) | 0.228 µM (active) | 0.2 µM (active) | 0.526 µM (active) | 0.146 µM (active) | 0.2 µM (active) | 0.395 µM (active) | 0.374 µM (active)
12 | NC(=O)NC(=O)c1cccc(NC(=O)CI)c1 | < 0.0128 µM (active) | < 0.0105 µM (active) | < 0.0159 µM | 0.646 µM (active) | < 0.0146 µM (active) | < 0.0367 µM (active) | 0.0622 µM (active) | < 0.0152 µM (active) | 0.151 µM (active) | 0.0607 µM (active) | < 0.0178 µM (active) | 0.0483 µM (active) | 0.0291 µM (active) | 0.0513 µM (active) | < 0.01 µM (active) | 0.162 µM (active) | < 0.01 µM (active) | < 0.0252 µM (active) | < 0.01 µM (active) | 0.103 µM (active)
13 | NCCO/C=C/C(N)C(=O)O (stereo not given) [AMINOETHOXYVINYLGLYCINE] | > 100 µM (inactive) | > 100 µM (inactive) | > 100 µM | > 100 µM (inactive) | > 100 µM (inactive) | > 100 µM (inactive) | > 100 µM (inactive) | > 100 µM (inactive) | > 100 µM (inactive) | > 100 µM (inactive) | > 100 µM (inactive) | > 100 µM (inactive) | > 100 µM (inactive) | > 100 µM (inactive) | 10.1 µM (inactive) | > 100 µM (inactive) | > 100 µM (inactive) | > 100 µM (inactive) | > 100 µM (inactive) | > 100 µM (inactive)
